According to ChEMBL document CHEMBL3046266, “Synthesis of curcumin and ethylcurcumin bioconjugates as potential antitumor agents” (Med Chem Res, 2012):
The source made the active and inactive calls. No cut-off for these calls is given here.

Experiments:
[1] = target: T1, DNA topoisomerase 1 (Homo sapiens) (UniProt P11387); assay: Inhibition of Homo sapiens (human) topoisomerase 1 assessed as production of nicked DNA up to 25 uM by agarose gel electrophoresis
T1 sequence (whole entry): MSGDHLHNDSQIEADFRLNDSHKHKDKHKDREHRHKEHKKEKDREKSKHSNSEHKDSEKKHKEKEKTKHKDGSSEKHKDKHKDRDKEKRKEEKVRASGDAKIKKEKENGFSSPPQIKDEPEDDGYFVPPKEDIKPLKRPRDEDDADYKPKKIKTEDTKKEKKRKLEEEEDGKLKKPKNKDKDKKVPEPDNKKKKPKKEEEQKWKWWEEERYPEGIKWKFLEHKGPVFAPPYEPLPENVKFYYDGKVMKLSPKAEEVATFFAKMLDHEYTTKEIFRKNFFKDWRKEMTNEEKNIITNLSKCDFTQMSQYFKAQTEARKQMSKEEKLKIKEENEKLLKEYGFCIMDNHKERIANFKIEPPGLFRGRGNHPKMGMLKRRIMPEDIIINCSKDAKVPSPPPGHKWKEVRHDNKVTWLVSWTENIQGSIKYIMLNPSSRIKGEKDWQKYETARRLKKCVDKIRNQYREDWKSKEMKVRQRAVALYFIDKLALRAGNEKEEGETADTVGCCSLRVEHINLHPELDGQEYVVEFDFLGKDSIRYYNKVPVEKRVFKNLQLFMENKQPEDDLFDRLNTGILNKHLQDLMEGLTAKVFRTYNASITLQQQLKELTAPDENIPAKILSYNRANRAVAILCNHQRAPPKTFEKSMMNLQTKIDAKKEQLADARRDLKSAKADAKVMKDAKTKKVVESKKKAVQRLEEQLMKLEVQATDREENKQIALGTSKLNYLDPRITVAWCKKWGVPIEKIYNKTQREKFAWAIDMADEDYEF

[2] = target: DNA topoisomerase 2-alpha (Homo sapiens, UniProt P11388); assay: Inhibition of Homo sapiens (human) topoisomerase 2 assessed as decatenation of KDNA by agarose gel electrophoresis
Sequence of DNA topoisomerase 2-alpha (P11388 whole entry): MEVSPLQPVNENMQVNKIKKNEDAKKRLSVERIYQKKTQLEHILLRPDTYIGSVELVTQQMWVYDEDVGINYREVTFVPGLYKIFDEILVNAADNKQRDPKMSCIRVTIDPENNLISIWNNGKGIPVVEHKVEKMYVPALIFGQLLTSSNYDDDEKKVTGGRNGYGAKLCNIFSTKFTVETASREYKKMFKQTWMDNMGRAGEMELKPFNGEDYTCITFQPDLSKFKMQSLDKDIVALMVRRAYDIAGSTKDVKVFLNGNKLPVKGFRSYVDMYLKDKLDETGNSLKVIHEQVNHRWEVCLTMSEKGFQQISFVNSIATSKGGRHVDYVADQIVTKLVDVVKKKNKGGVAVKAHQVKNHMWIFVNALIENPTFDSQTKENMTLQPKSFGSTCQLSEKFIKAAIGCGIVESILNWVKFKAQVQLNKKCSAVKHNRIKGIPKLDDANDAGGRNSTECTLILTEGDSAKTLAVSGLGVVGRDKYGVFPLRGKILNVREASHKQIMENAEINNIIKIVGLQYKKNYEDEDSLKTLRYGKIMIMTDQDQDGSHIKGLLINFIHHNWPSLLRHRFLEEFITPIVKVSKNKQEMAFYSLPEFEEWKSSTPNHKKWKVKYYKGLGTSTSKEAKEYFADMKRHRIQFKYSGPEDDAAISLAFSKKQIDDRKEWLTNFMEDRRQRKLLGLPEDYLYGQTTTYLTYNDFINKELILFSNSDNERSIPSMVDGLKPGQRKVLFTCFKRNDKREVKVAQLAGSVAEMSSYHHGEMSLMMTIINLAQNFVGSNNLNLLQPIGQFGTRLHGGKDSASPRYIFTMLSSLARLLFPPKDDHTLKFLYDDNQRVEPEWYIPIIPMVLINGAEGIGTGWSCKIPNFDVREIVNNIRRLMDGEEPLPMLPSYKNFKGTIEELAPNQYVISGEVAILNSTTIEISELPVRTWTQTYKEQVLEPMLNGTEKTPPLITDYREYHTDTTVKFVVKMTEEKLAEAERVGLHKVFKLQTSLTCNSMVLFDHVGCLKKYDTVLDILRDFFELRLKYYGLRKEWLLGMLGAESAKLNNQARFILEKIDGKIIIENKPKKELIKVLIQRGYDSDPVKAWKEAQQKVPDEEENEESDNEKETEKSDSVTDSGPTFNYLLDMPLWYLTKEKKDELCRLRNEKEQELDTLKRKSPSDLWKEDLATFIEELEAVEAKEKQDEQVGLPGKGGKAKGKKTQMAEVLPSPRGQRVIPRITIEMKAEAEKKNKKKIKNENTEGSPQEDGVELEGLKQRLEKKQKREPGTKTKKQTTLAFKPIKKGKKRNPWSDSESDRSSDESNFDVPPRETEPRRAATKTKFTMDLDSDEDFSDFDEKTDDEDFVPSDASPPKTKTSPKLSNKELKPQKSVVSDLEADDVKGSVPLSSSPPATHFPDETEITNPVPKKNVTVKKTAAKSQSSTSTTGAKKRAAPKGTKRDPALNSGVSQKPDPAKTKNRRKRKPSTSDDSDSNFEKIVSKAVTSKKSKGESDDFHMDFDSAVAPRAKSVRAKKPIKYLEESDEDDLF

BT-549 [3] = assay: Cytotoxicity against Homo sapiens (human) BT549 cells up to 25 uM by neutral red staining; format: functional, cell-based
SK-MEL [4] = assay: Cytotoxicity against Homo sapiens (human) SK-MEL cells up to 25 uM by neutral red staining; format: functional, cell-based
KB [5] = assay: Cytotoxicity against Homo sapiens (human) KB cells up to 25 uM by neutral red staining; format: functional, cell-based
LLC-PK1 [6] = assay: Cytotoxicity against Sus scrofa (pig) LLC-PK1 cells up to 25 uM by neutral red staining; format: cell-based
SK-OV-3 = assay: Cytotoxicity against Homo sapiens (human) SKOV3 cells up to 25 uM by neutral red staining; format: functional, cell-based
[7] = target: T1, DNA topoisomerase 1 (Homo sapiens); assay: Inhibition of Homo sapiens (human) topoisomerase 1 assessed as relaxation of supercoiled DNA up to 25 uM by agarose gel electrophoresis
Vero = assay: Cytotoxicity against Chlorocebus aethiops (African green monkey) Vero cells up to 25 uM by neutral red staining; format: cell-based; conditions: chlorocebus sabaeus
BT-549 [8] = assay: Cytotoxicity against Homo sapiens (human) BT549 cells by neutral red staining; format: functional, cell-based
KB [9] = assay: Cytotoxicity against Homo sapiens (human) KB cells by neutral red staining; format: functional, cell-based
SK-MEL [10] = assay: Cytotoxicity against Homo sapiens (human) SK-MEL cells by neutral red staining; format: functional, cell-based
LLC-PK1 [11] = assay: Cytotoxicity against Sus scrofa (pig) LLC-PK1 cells by neutral red staining; format: cell-based

Structure (SMILES)	inhibition [1]	IC50 [2]	inhibition [7]	Activity (BT-549 [3])	Activity (SK-MEL [4])	Activity (KB [5])	Activity (LLC-PK1 [6])	Activity (SK-OV-3)	Activity (Vero)	IC50 (BT-549 [8])	IC50 (KB [9])	IC50 (SK-MEL [10])	IC50 (LLC-PK1 [11])
COc1cc(/C=C/C(=O)CC(=O)/C=C/c2ccc(OC(=O)CCl)c(OC)c2)ccc1OC(=O)CCl [DI-O-CHLOROACETYLCURCUMIN]	inactive	20 µM	inactive	–	–	–	Non-toxic	inactive	Non-toxic	10 µM	> 25 µM	12.5 µM	–
CCOc1cc(/C=C/C(=O)CC(=O)/C=C/c2ccc(OC(=O)CCCl)c(OCC)c2)ccc1OC(=O)CCCl [DI-O-CHLOROPROPIONYLETHYL CURCUMIN]	inactive	20 µM	inactive	inactive	inactive	inactive	Non-toxic	inactive	Non-toxic	–	–	–	–
COc1cc(/C=C/C(=O)CC(=O)/C=C/c2ccc(OC(=O)CNCCCl)c(OC)c2)ccc1OC(=O)CNCCCl	inactive	0.35 µM	inactive	inactive	inactive	inactive	Non-toxic	inactive	Non-toxic	–	–	–	–
COc1cc(/C=C/C(=O)CC(=O)/C=C/c2ccc(OC(=O)CCNC34CC5CC(CC(C5)C3)C4)c(OC)c2)ccc1OC(=O)CCNC12CC3CC(CC(C3)C1)C2	inactive	18 µM	inactive	–	–	–	Non-toxic	inactive	Non-toxic	20.5 µM	> 25 µM	18.5 µM	–
COc1cc(/C=C/C(=O)CC(=O)/C=C/c2ccc(O)c(OC)c2)ccc1O [CURCUMIN]	inactive	15 µM	inactive	–	–	–	Non-toxic	inactive	Non-toxic	10.5 µM	> 25 µM	13.8 µM	–
COc1ccc2nc(NCCC(=O)Oc3ccc(/C=C/C(=O)CC(=O)/C=C/c4ccc(OC(=O)CCNc5nc6ccc(OC)cc6s5)c(OC)c4)cc3OC)sc2c1	inactive	19 µM	inactive	–	–	–	Non-toxic	inactive	Non-toxic	23.8 µM	> 25 µM	23.8 µM	–
CCOc1cc(/C=C/C(=O)CC(=O)/C=C/c2ccc(OC(=O)c3cccs3)c(OCC)c2)ccc1OC(=O)c1cccs1 [DI-O-(2-THIENOYL)ETHYLCURCUMIN]	inactive	23 µM	inactive	inactive	inactive	inactive	Non-toxic	inactive	Non-toxic	–	–	–	–
CCOc1cc(/C=C/C(=O)CC(=O)/C=C/c2ccc(OC(=O)CCl)c(OCC)c2)ccc1OC(=O)CCl [DI-O-CHLOROACETYLETHYL CURCUMIN]	inactive	12 µM	inactive	inactive	inactive	inactive	Non-toxic	inactive	Non-toxic	–	–	–	–

Continued, in another order:

inhibition [1]	IC50 [2]	inhibition [7]	Structure (SMILES)	Activity (BT-549 [3])	Activity (SK-MEL [4])	Activity (KB [5])	Activity (LLC-PK1 [6])	Activity (SK-OV-3)	Activity (Vero)	IC50 (BT-549 [8])	IC50 (KB [9])	IC50 (SK-MEL [10])	IC50 (LLC-PK1 [11])
inactive	3.4 µM	inactive	CCOc1cc(/C=C/C(=O)CC(=O)/C=C/c2ccc(OC(=O)CNC34CC5CC(CC(C5)C3)C4)c(OCC)c2)ccc1OC(=O)CNC12CC3CC(CC(C3)C1)C2	inactive	inactive	inactive	Non-toxic	inactive	Non-toxic	–	–	–	–
inactive	7.1 µM	inactive	CCOc1cc(/C=C/C(=O)CC(=O)/C=C/c2ccc(OC(=O)CCNCCN(CC)CC)c(OCC)c2)ccc1OC(=O)CCNCCN(CC)CC	inactive	inactive	inactive	Non-toxic	inactive	Non-toxic	–	–	–	–
inactive	2.9 µM	inactive	CCCCCCC(=O)Oc1ccc(/C=C/C(=O)CC(=O)/C=C/c2ccc(OC(=O)CCCCCC)c(OC)c2)cc1OC [DI-O-HEPTANOYLCURCUMIN]	inactive	inactive	inactive	Non-toxic	inactive	Non-toxic	–	–	–	–
inactive	4 µM	inactive	COc1cc(/C=C/C(=O)CC(=O)/C=C/c2ccc(OC(=O)CNC34CC5CC(CC(C5)C3)C4)c(OC)c2)ccc1OC(=O)CNC12CC3CC(CC(C3)C1)C2	–	–	–	Non-toxic	inactive	Non-toxic	19.4 µM	> 25 µM	15 µM	–
inactive	15 µM	inactive	COc1ccc2nc(NCC(=O)Oc3ccc(/C=C/C(=O)CC(=O)/C=C/c4ccc(OC(=O)CNc5nc6ccc(OC)cc6s5)c(OC)c4)cc3OC)sc2c1	–	–	–	–	inactive	Non-toxic	18.1 µM	23 µM	15 µM	22.5 µM
inactive	7.5 µM	inactive	CCOc1cc(/C=C/C(=O)CC(=O)/C=C/c2ccc(O)c(OCC)c2)ccc1O [ETHYL CURCUMIN]	–	–	–	Non-toxic	inactive	Non-toxic	18 µM	> 25 µM	16 µM	–
inactive	8 µM	inactive	COc1cc(/C=C/C(=O)CC(=O)/C=C/c2ccc(OC(=O)c3cccs3)c(OC)c2)ccc1OC(=O)c1cccs1 [DI-O-(2-THIENOYL)CURCUMIN]	inactive	inactive	inactive	Non-toxic	inactive	Non-toxic	–	–	–	–
inactive	4 µM	inactive	CCOc1cc(/C=C/C(=O)CC(=O)/C=C/c2ccc(OC(=O)CNCCN(C)C)c(OCC)c2)ccc1OC(=O)CNCCN(C)C	–	inactive	inactive	–	inactive	Non-toxic	11.5 µM	–	–	22 µM
inactive	4.5 µM	inactive	COc1cc(/C=C/C(=O)CC(=O)/C=C/c2ccc(OC(=O)C34CC5CC(CC(C5)C3)C4)c(OC)c2)ccc1OC(=O)C12CC3CC(CC(C3)C1)C2 [DI-O-ADAMANTOYLCURCUMIN]	inactive	inactive	inactive	Non-toxic	inactive	Non-toxic	–	–	–	–
inactive	3 µM	inactive	CCCCCCC(=O)Oc1ccc(/C=C/C(=O)CC(=O)/C=C/c2ccc(OC(=O)CCCCCC)c(OCC)c2)cc1OCC [DI-O-HEPTANOYLETHYLCURCUMIN]	inactive	inactive	inactive	Non-toxic	inactive	Non-toxic	–	–	–	–
inactive	2.1 µM	inactive	CCOc1cc(/C=C/C(=O)CC(=O)/C=C/c2ccc(OC(=O)CCNC34CC5CC(CC(C5)C3)C4)c(OCC)c2)ccc1OC(=O)CCNC12CC3CC(CC(C3)C1)C2	inactive	inactive	–	Non-toxic	inactive	Non-toxic	–	15 µM	–	–
